Source: patent EP0446124A2, “Use of antiprogestomimetics to synchronise parturition in livestock” (ROUSSEL UCLAF, priority 1990, dated 1991)

Test system: truies
Assay: Synchronisation of parturition in sows: interval between injection of the active principle and farrowing
Assay type: in vivo
Settings: single i.m. injection on day 113 of gestation (Ho = 9 h); for intervalle de temps entre l'injection du principe actif et la mise bas: 20 à 30 H (number of animals) / intervalle de temps entre l'injection du principe actif et la mise bas: 30 à 36 H (number of animals) / intervalle de temps entre l'injection du principe actif et la mise bas: - 20 H (number of animals): produit A 2 mg/kg (n = 24); for intervalle de temps entre l'injection du principe actif et la mise bas: 20 à 30 H (number of animals) / intervalle de temps entre l'injection du principe actif et la mise bas: 20 à 30 H (% des animaux): farrowing 20 to 30 h after injection; for intervalle de temps entre l'injection du principe actif et la mise bas: 30 à 36 H (number of animals) / intervalle de temps entre l'injection du principe actif et la mise bas: 30 à 36 H (% des animaux): farrowing 30 to 36 h after injection; for intervalle de temps entre l'injection du principe actif et la mise bas: - 20 H (number of animals) / intervalle de temps entre l'injection du principe actif et la mise bas: - 20 H (% des animaux): farrowing less than 20 h after injection; for intervalle de temps entre l'injection du principe actif et la mise bas: 20 à 30 H (% des animaux) / intervalle de temps entre l'injection du principe actif et la mise bas: 30 à 36 H (% des animaux) / intervalle de temps entre l'injection du principe actif et la mise bas: - 20 H (% des animaux): produit A 2 mg/kg
From the text: L'essai a été réalisé chez des truies. Les truies ont été sélectionnées en fonction des critères suivants : • truies de même origine (même schéma de sélection), • truies de même rang de parturition (3ème), • saillie par le même verrat ou insémination artificielle avec semence de même origine, • nombre de saillies ou d'inséminations identiques, • saillie ou insémination sur première chaleur post-sevrage (intervalle sevrage saillie identique ou très proche), • durée d'allaitement identique.
Les truies sont divisées en 3 lots de n animaux : • un lot témoin ne reçoit aucun produit, • un lot reçoit une injection intra-musculaire de 2 mg/kg de produit A ou 17béta-hydroxy 11béta-(4-diméthylaminophényl) 17alpha-(prop-1-ynyl) estra-4,9-dièn-3-one, le 113ème jour de la gestation, • un lot reçoit une injection intra-musculaire de 175 mcg de cloprosténol sous forme de PLANATE^ R par truie, le 113 ème jour de la gestation.
On a mesuré l'intervalle de temps entre l'injection du principe actif et la mise bas : le tableau suivant résume les résultats obtenus.
1.- Animaux traités (Ho = 9 heures le 113ème jour de gestation.

[1] = cloprosténol 175 mcg per sow (n = 23)

O=C(O)CCC/C=C\CC1C(O)CC(O)C1/C=C/C(O)COc1cccc(Cl)c1 (centres unmarked) [Cloprosténol, cloprosténol]
intervalle de temps entre l'injection du principe actif et la mise bas: + 36 H (number of animals) (cloprosténol 175 mcg per sow (n = 23), farrowing more than 36 h after injection): 3
intervalle de temps entre l'injection du principe actif et la mise bas: + 36 H (% des animaux) (cloprosténol 175 mcg per sow, farrowing more than 36 h after injection): 13%
intervalle de temps entre l'injection du principe actif et la mise bas: 20 à 30 H (number of animals) [1]: 18
intervalle de temps entre l'injection du principe actif et la mise bas: 30 à 36 H (number of animals) [1]: 1
intervalle de temps entre l'injection du principe actif et la mise bas: - 20 H (number of animals) [1]: 1
intervalle de temps entre l'injection du principe actif et la mise bas: 20 à 30 H (% des animaux) (cloprosténol 175 mcg per sow): 78%
intervalle de temps entre l'injection du principe actif et la mise bas: 30 à 36 H (% des animaux) (cloprosténol 175 mcg per sow): 4,5%
intervalle de temps entre l'injection du principe actif et la mise bas: - 20 H (% des animaux) (cloprosténol 175 mcg per sow): 4,5%

CC#C[C@]1(O)CC[C@H]2[C@@H]3CCC4=CC(=O)CCC4=C3[C@@H](c3ccc(N(C)C)cc3)C[C@@]21C [Produit A, 17béta-hydroxy 11béta-(4-diméthylaminophényl) 17alpha-(prop-1-ynyl) estra-4,9-dièn-3-one]
intervalle de temps entre l'injection du principe actif et la mise bas: 20 à 30 H (number of animals) [1]: 22
intervalle de temps entre l'injection du principe actif et la mise bas: 30 à 36 H (number of animals) [1]: 1
intervalle de temps entre l'injection du principe actif et la mise bas: - 20 H (number of animals) [1]: 1
intervalle de temps entre l'injection du principe actif et la mise bas: 20 à 30 H (% des animaux) (cloprosténol 175 mcg per sow): 92%
intervalle de temps entre l'injection du principe actif et la mise bas: 30 à 36 H (% des animaux) (cloprosténol 175 mcg per sow): 4%
intervalle de temps entre l'injection du principe actif et la mise bas: - 20 H (% des animaux) (cloprosténol 175 mcg per sow): 4%
